Experimental data from ChEMBL document CHEMBL1124752, “Cyclobut-A and cyclobut-G: broad-spectrum antiviral agents with potential utility for the therapy of AIDS” (J Med Chem, 1990).
≈ marks a conversion by molar mass, not a printed value.

Experiments:
Murid betaherpesvirus 1 [1] = test: Number of survivors per number of systemic MCMV infected mice treated with 33.4 mg/kg/day; 13/15; assay type: functional
[2] = tested on: Human immunodeficiency virus 1; test: Tested for the determination of percentage toxicity at 10 uM against HIV-1 in ATH8 cells; assay type: organism-based; settings: human immunodeficiency virus 1, ath-8, 10 µM
Human alphaherpesvirus 2 [3] = test: In vitro antiviral activity tested against herpesvirus, HSV-2, HEET strain by plaque reduction assay in human foreskin fibroblasts; assay type: functional
Human alphaherpesvirus 2 [4] = test: Tested for mean day to death of nonsurvivors against HSV-2 encephalitis in mice at 7.8 mg/kg/day; assay type: functional, herpes simplex virus
Human alphaherpesvirus 1 [5] = test: In vitro antiviral activity tested against herpesvirus, HSV-1, E-377 strain by plaque reduction assay in human foreskin fibroblasts; assay type: functional
[6] = tested on: Human immunodeficiency virus 1; test: Tested for the determination of percentage toxicity at 50 uM against HIV-1 in ATH8 cells; assay type: organism-based; settings: human immunodeficiency virus 1, ath-8, 50 µM
Human alphaherpesvirus 3 [7] = test: In vitro antiviral activity tested against herpesvirus, VZV, OKA strain by plaque reduction assay in human foreskin fibroblasts; assay type: functional
Murid betaherpesvirus 1 [8] = test: Tested for mean day to death of nonsurvivors against systemic MCMV infection in mice at 3.8 mg/kg/day; assay type: functional
Homo sapiens = organism: Homo sapiens; test: The drug concentration was determined to reduce proliferation of human foreskin fibroblasts to 50% of untreated controls in proliferation assay; assay type: functional; settings: read-out: ID50 (the source's name)
Human alphaherpesvirus 3 [9] = test: In vitro antiviral activity tested against herpesvirus, VZV, Ellen strain by plaque reduction assay in human foreskin fibroblasts; assay type: functional
[10] = tested on: Human immunodeficiency virus 1; test: Tested for the determination of percentage protection at 100 uM against HIV-1 in ATH8 cells; assay type: functional, ATH-8
Human betaherpesvirus 5 [11] = test: In vitro antiviral activity tested against herpesvirus, HCMV, AD169 strain by plaque reduction assay in human foreskin fibroblasts; assay type: functional
Murid betaherpesvirus 1 [12] = test: Number of survivors per number of systemic MCMV infected mice treated with 100 mg/kg/day; 13/15; assay type: functional
Human betaherpesvirus 5 [13] = test: In vitro antiviral activity tested against herpesvirus, HCMV, LA strain by plaque reduction assay in human foreskin fibroblasts; assay type: functional
Murid betaherpesvirus 1 [14] = test: Tested for the effective dose required to inhibit systemic MCMV in infected mice; assay type: functional
Human alphaherpesvirus 2 [15] = test: Tested for the effective dose required to inhibit HSV-2 encephalitis in infected mice; assay type: functional, herpes simplex virus
[16] = tested on: Human immunodeficiency virus 1; test: Tested for the determination of percentage protection at 1 uM against HIV-1 in ATH8 cells; assay type: functional, ATH-8
Human alphaherpesvirus 2 [17] = test: Number of survivors per number of HSV-2 infected mice treated with 125 mg/kg/day; 8/10; assay type: functional, herpes simplex virus
[18] = tested on: Human immunodeficiency virus 1; test: Tested for the determination of percentage protection at 10 uM against HIV-1 in ATH8 cells; assay type: functional, ATH-8
Human alphaherpesvirus 2 [19] = test: Number of survivors per number of HSV-2 infected mice treated with 7.8 mg/Kg/day; 5/10; assay type: functional, herpes simplex virus
Human alphaherpesvirus 1 [20] = test: Tested for mean day to death of nonsurvivors against HSV-1 infection in mice at 4.7 mg/kg/day; assay type: functional, herpes simplex virus
Human alphaherpesvirus 1 [21] = test: Number of survivors per number of HSV-1 infected mice treated with 18.7 mg/kg/day; 10/10; assay type: functional, herpes simplex virus
Human alphaherpesvirus 2 [22] = test: In vitro antiviral activity tested against herpesvirus, HSV-2, JEN strain by plaque reduction assay in human foreskin fibroblasts; assay type: functional
Human alphaherpesvirus 1 [23] = test: Tested for mean day to death of nonsurvivors against HSV-1 infection in mice at 1.2 mg/kg/day; assay type: functional, herpes simplex virus
Human alphaherpesvirus 2 [24] = test: Tested for mean day to death of nonsurvivors against HSV-2 encephalitis in mice at 125 mg/kg/day; assay type: functional, herpes simplex virus
Human alphaherpesvirus 2 [25] = test: Number of survivors per number of HSV-2 infected mice treated with 31.2 mg/Kg/day; 4/10; assay type: functional, herpes simplex virus
Human alphaherpesvirus 2 [26] = test: In vitro antiviral activity tested against herpesvirus, HSV-2, MS strain by plaque reduction assay in human foreskin fibroblasts; assay type: functional
[27] = tested on: Human immunodeficiency virus 1; test: Tested for the determination of percentage toxicity at 1 uM against HIV-1 in ATH8 cells; assay type: organism-based; settings: human immunodeficiency virus 1, ath-8, 1 µM
Human alphaherpesvirus 2 [28] = test: In vitro antiviral activity tested against herpesvirus, HSV-2, X-79 strain by plaque reduction assay in human foreskin fibroblasts; assay type: functional
Human alphaherpesvirus 1 [29] = test: Number of survivors per number of HSV-1 infected mice treated with 4.7 mg/kg/day; 7/10; assay type: functional, herpes simplex virus
Human alphaherpesvirus 2 [30] = test: Tested for mean day to death of nonsurvivors against HSV-2 encephalitis in mice at 31.2 mg/kg/day; assay type: functional, herpes simplex virus
[31] = tested on: Human immunodeficiency virus 1; test: Tested for the determination of percentage protection at 50 uM against HIV-1 in ATH8 cells; assay type: functional, ATH-8
Human betaherpesvirus 5 [32] = test: In vitro antiviral activity tested against herpesvirus, HCMV, Davis strain by plaque reduction assay in human foreskin fibroblasts; assay type: functional
Human alphaherpesvirus 1 [33] = test: Tested for the effective dose required to inhibit HSV-1 in infected mice; assay type: functional, herpes simplex virus
Murid betaherpesvirus 1 [34] = test: Tested for mean day to death of nonsurvivors against systemic MCMV infection in mice at 33.4 mg/kg/day; assay type: functional
Human betaherpesvirus 5 [35] = test: In vitro antiviral activity tested against herpesvirus, HCMV, EC strain by plaque reduction assay in human foreskin fibroblasts; assay type: functional
[36] = tested on: Human immunodeficiency virus 1; test: Tested for the determination of percentage toxicity at 100 uM against HIV-1 in ATH8 cells; assay type: organism-based; settings: human immunodeficiency virus 1, ath-8, 100 µM
Raji = test: Tested for the inhibition of diffuse early antigen production assayed by immunofluorescent monoclonal antibody in Raji cells; assay type: functional; settings: Homo sapiens
Murid betaherpesvirus 1 [37] = test: Tested for mean day to death of nonsurvivors against systemic MCMV infection in mice at 11.2 mg/kg/day; assay type: functional
Murid betaherpesvirus 1 [38] = test: In vitro antiviral activity tested against herpesvirus, MCMV, Smith strain by plaque reduction assay in mouse embryo fibroblasts; assay type: functional
Murid betaherpesvirus 1 [39] = test: Tested for mean day to death of nonsurvivors against systemic MCMV infection in mice at 100 mg/kg/day; assay type: functional
Murid betaherpesvirus 1 [40] = test: Number of survivors per number of systemic MCMV infected mice treated with 3.8 mg/kg/day; 7/15; assay type: functional
Murid betaherpesvirus 1 [41] = test: Number of survivors per number of systemic MCMV infected mice treated with 11.2 mg/kg/day; 9/15; assay type: functional
Human alphaherpesvirus 1 [42] = test: Number of survivors per number of HSV-1 infected mice treated with 1.2 mg/kg/day; 4/10; assay type: functional, herpes simplex virus
[43] = read-out: ED50 (the source's name)
[44] = read-out: ID50 (the source's name)

`Nc1nc(O)c2ncn([C@@H]3C[C@H](CO)C3CO)c2n1` (some centres not stated) gave a Survivors / treated (Murid betaherpesvirus 1 [1]) of 13, a Cytotoxity [2] of 0% and an EC50 (Human alphaherpesvirus 2 [3]; [43]) of 0.07 µg/mL (≈ 0.264 µM). It also gave an IC50 (Human alphaherpesvirus 2 [3]; [44]) greater than 100 µg/mL, an MDD (Human alphaherpesvirus 2 [4]) of 12.1 and an EC50 (Human alphaherpesvirus 1 [5]; [43]) of 0.05 µg/mL (≈ 0.188 µM). The IC50 (Human alphaherpesvirus 1 [5]; [44]) was greater than 100 µg/mL, the Cytotoxity [6] was 41% and the EC50 (Human alphaherpesvirus 3 [7]; [43]) was 0.4 µg/mL (≈ 1.51 µM). The IC50 (Human alphaherpesvirus 3 [7]; [44]) was greater than 100 µg/mL, the MDD (Murid betaherpesvirus 1 [8]) was 5.9 and the IC50 (Homo sapiens) was 27 µg/mL (≈ 102 µM). For the same compound, the EC50 (Human alphaherpesvirus 3 [9]; [43]) was 0.4 µg/mL (≈ 1.51 µM), the IC50 (Human alphaherpesvirus 3 [9]; [44]) was greater than 100 µg/mL and the Protection [10] was 11%. It also gave an EC50 (Human betaherpesvirus 5 [11]; [43]) of 6.2 µg/mL (≈ 23.4 µM), an IC50 (Human betaherpesvirus 5 [11]; [44]) greater than 100 µg/mL and a Survivors / treated (Murid betaherpesvirus 1 [12]) of 13. The EC50 (Human betaherpesvirus 5 [13]; [43]) was 1.2 µg/mL (≈ 4.52 µM), the IC50 (Human betaherpesvirus 5 [13]; [44]) was greater than 100 µg/mL and the ED50 (Murid betaherpesvirus 1 [14]) was 2.2 mg/kg/day. For the same compound, the ED50 (Human alphaherpesvirus 2 [15]) was 39.8 mg/kg/day, the Protection [16] was 29% and the Survivors / treated (Human alphaherpesvirus 2 [17]) was 8. It also gave a Protection [18] of 100%, a Survivors / treated (Human alphaherpesvirus 2 [19]) of 5 and an MDD (Human alphaherpesvirus 1 [20]) of 9.3. The Survivors / treated (Human alphaherpesvirus 1 [21]) was 10, the EC50 (Human alphaherpesvirus 2 [22]; [43]) was 0.05 µg/mL (≈ 0.188 µM) and the IC50 (Human alphaherpesvirus 2 [22]; [44]) was greater than 100 µg/mL. The MDD (Human alphaherpesvirus 1 [23]) was 9.3, the MDD (Human alphaherpesvirus 2 [24]) was 16.3 and the Survivors / treated (Human alphaherpesvirus 2 [25]) was 4. The EC50 (Human alphaherpesvirus 2 [26]; [43]) was 0.07 µg/mL (≈ 0.264 µM), the IC50 (Human alphaherpesvirus 2 [26]; [44]) was greater than 100 µg/mL and the Cytotoxity [27] was 8%. The EC50 (Human alphaherpesvirus 2 [28]; [43]) was 0.06 µg/mL (≈ 0.226 µM), the IC50 (Human alphaherpesvirus 2 [28]; [44]) was greater than 100 µg/mL and the Survivors / treated (Human alphaherpesvirus 1 [29]) was 7. It also gave an MDD (Human alphaherpesvirus 2 [30]) of 11.2, a Protection [31] of 46% and an EC50 (Human betaherpesvirus 5 [32]; [43]) of 4.9 µg/mL (≈ 18.5 µM). For the same compound, the IC50 (Human betaherpesvirus 5 [32]; [44]) was greater than 100 µg/mL, the ED50 (Human alphaherpesvirus 1 [33]) was 1.9 mg/kg/day and the MDD (Murid betaherpesvirus 1 [34]) was 4.5. The EC50 (Human betaherpesvirus 5 [35]; [43]) was 3.9 µg/mL (≈ 14.7 µM), the IC50 (Human betaherpesvirus 5 [35]; [44]) was greater than 100 µg/mL and the Cytotoxity [36] was 83%. For the same compound, the EC50 (Raji; [43]) was 0.01 µg/mL (≈ 0.0377 µM), the IC50 (Raji; [44]) was 94 µg/mL (≈ 354 µM) and the MDD (Murid betaherpesvirus 1 [37]) was 5.8. The EC50 (Murid betaherpesvirus 1 [38]; [43]) was 0.1 µg/mL (≈ 0.377 µM), the IC50 (Murid betaherpesvirus 1 [38]; [44]) was greater than 100 µg/mL and the MDD (Murid betaherpesvirus 1 [39]) was 3.5. It also gave a Survivors / treated (Murid betaherpesvirus 1 [40]) of 7, a Survivors / treated (Murid betaherpesvirus 1 [41]) of 9 and a Survivors / treated (Human alphaherpesvirus 1 [42]) of 4.
